Assay results from patent US5656629A, “6-substituted pyrazolo (3,4-d)pyrimidin-4-ones and compositions and methods of use thereof” (Sanofi Winthrop, Inc., priority 1995, dated 1997).

Key:
cGMP-PDE V = biological target: T1, cGMP-PDE V (Homo sapiens, UniProt O76074); test: cGMP-PDE V inhibition (isozyme isolated from cardiovascular tissue); type: biochemical, various animal species and man; conditions: for inhibition at 0.1 µM / inhibition at 1 µM / inhibition at 0.01 µM / inhibition at 10 µM: read-out: Percent Inhibition cGMP-PDE V
T1 construct: isolated from cardiovascular tissues (heart and aorta); from tissue; host or cells: cardiovascular tissues (heart and aorta)
From the text: The cGMP-PDE and other PDE isozymes were isolated from cardiovascular tissues (heart and aorta) of various animal species and man by anion-exchange and affinity chromatography as described by Silver et al., Sec. Messeng. Phos. […] Cyclic Nucleotide Res. 10:69-92.

[1] = system: Spontaneously hypertensive rats (SHR); test: antihypertensive activity in conscious spontaneously hypertensive rats (mean arterial pressure); type: in vivo; conditions: Rattus norvegicus, SHR iv; for ED25: 5 min, 5 min after dose, cumulative dosing, read-out: ED25, change in mean arterial pressure
Description: After a 2 day recovery from surgery, three baseline blood pressure measurements were made at 5 min intervals in conscious SHR. Compounds to be tested or vehicle were then administered intravenously in a dose-dependent manner (0.3-10 mg base/kg) while arterial pressure was recorded continuously on a polygraph. The mean arterial pressure response was measured 5 minutes after the administration of each dose of the test compound and the next dose given in a cumulative dose fashion. The response to each dose of the test compound was calculated as the difference from the mean of the three baseline measurements.

With `CCc1[nH]n(C2CCCC2)c2nc(Oc3ccccc3)nc(=O)c1-2` [Example 39, 1-cyclopentyl-3-ethyl-6-(phenyloxy)pyrazolo[3,4-d]pyrimidin-4-one] the inhibition at 0.1 µM (cGMP-PDE V) was 33% and the inhibition at 1 µM (cGMP-PDE V; 1 μM) was 74%.

With `CCc1[nH]n(C2CCCC2)c2nc(CN3CCc4ccccc4C3)nc(=O)c1-2` [15(c), 1-cyclopentyl-3-ethyl-6-(1,2,3,4-tetrahydro-2-isoquinolinylmethyl)pyrazolo[3,4-d]pyrimidin-4-one] the IC50 (cGMP-PDE V) was 1770 nM.

`CCc1[nH]n(C2CCCC2)c2nc(Cc3ccsc3)nc(=O)c1-2` [Example 31, 1-cyclopentyl-3-ethyl-6-(3-thienylmethyl)pyrazolo[3,4-d]pyrimidin-4-one] gave an IC50 (cGMP-PDE V) of 30 nM.

`CCc1[nH]n(C2CCCC2)c2nc(Cc3cccc(OC)c3)nc(=O)c1-2` [Example 19, 1-cyclopentyl-3-ethyl-6-(3-methoxyphenylmethyl)pyrazolo[3,4-d]pyrimidin-4-one] showed an IC50 (cGMP-PDE V) of 33 nM, an ED25 [1] of 11 mg/kg and a change in vivo at 10 mg/kg [1] of -21%.

With `Cc1[nH]n(C(C)(C)C)c2nc(Cc3ccccc3)nc(=O)c1-2` [37(d), 1-tert-butyl-3-methyl-6-(phenylmethyl)pyrazolo[3,4-d]pyrimidin-4-one] the inhibition at 0.1 µM (cGMP-PDE V) was 36% and the inhibition at 1 µM (cGMP-PDE V; 1 μM) was 78%.

`CCc1nn(C2CCCC2)c2nc(Cc3ccc(OCCN4CCOCC4)cc3)[nH]c(=O)c12` [10(b)] was tested, and the IC50 (cGMP-PDE V) was 270 nM and the change in vivo at 10 mg/kg [1] was -17%.

Work on `CCc1[nH]n(C2CCCC2)c2nc(Cc3c(C)noc3C)nc(=O)c1-2` [28(b), 1-cyclopentyl-3-ethyl-6-(3,5-dimethyl-4-isoxazolylmethyl)pyrazolo[3,4-d]pyrimidin-4-one] yielded an inhibition at 1 µM (cGMP-PDE V; 1 μM) of 48%.

With `CCc1[nH]n(C2CCCC2)c2nc(Cc3ccc(OC(=O)c4ccc(CN(CC)CC)cc4)cc3)nc(=O)c1-2` [33(b), 1-cyclopentyl-3-ethyl-6-[4-[4-(diethylaminomethyl)phenylcarbonyloxy]phenylmethyl]pyrazolo[3,4-d]pyrimidin-4-one] the inhibition at 0.1 µM (cGMP-PDE V) was 56%, the ED25 [1] was 9.3 mg/kg and the change in vivo at 10 mg/kg [1] was -27%.

With `CCc1nn(C2CCCC2)c2nc(Cn3cnc4ccccc43)[nH]c(=O)c12` [12(b), 1-cyclopentyl-3-ethyl-6-[1-benzimidazolylmethyl]pyrazolo[3,4-d]pyrimidin-4-one] the inhibition at 0.1 µM (cGMP-PDE V) was 17% and the inhibition at 1 µM (cGMP-PDE V; 1 μM) was 39%.

Molecule `CCc1nn(C2CCCC2)c2nc(Cn3cccc3)[nH]c(=O)c12` [Example 5, 1-cyclopentyl-3-ethyl-6-(1-pyrrolylmethyl)-pyrazolo[3,4-d]pyrimidin-4-one] has an IC50 (cGMP-PDE V) of 310 nM.

Molecule `CCc1[nH]n(C2CCCC2)c2nc(Cc3cccn3C)nc(=O)c1-2` [Example 22, 1-cyclopentyl-3-ethyl-6-(1-methyl-2-pyrrolylmethyl)pyrazolo[3,4-d]pyrimidin-4-one] has an IC50 (cGMP-PDE V) of 300 nM.

In the case of `CCc1[nH]n(C2CCCC2)c2nc(Cc3ccc(OCc4nnn[nH]4)cc3)nc(=O)c1-2` [11(b), 1-cyclopentyl-3-ethyl-6-[4-(5-tetrazolylmethoxy)phenylmethyl]pyrazolo[3,4-d]pyrimidin-4-one], the IC50 (cGMP-PDE V) is reported as 310 nM and the change in vivo at 10 mg/kg [1] is reported as -4%.

`CCc1[nH]n(C2CCCC2)c2nc(Cc3ccc(-n4ccnc4)cc3)nc(=O)c1-2` [36(b), 1-cyclopentyl-3-ethyl-6-[4-(1-imidazolyl)phenylmethyl]pyrazolo[3,4-d]pyrimidin-4-one] showed an inhibition at 0.1 µM (cGMP-PDE V) of 26% and an inhibition at 1 µM (cGMP-PDE V; 1 μM) of 62%.

With “1-cyclopentyl-3-ethyl-6-[3,5-dimethylamino-4-hydroxyphenylmethyl]pyrazolo[3,4-d]pyrimidin-4-one [Example 14]” the “Percent Inhibition cGMP-PDE V” value (cGMP-PDE V; 1 μM) was 28% and the “Percent Inhibition cGMP-PDE V” value (cGMP-PDE V; 10 μM) was 77%.

`CCc1[nH]n(C2CCCC2)c2nc(Cc3ccccc3OC)nc(=O)c1-2` [27(b), 1-cyclopentyl-3-ethyl-6-(2-methoxyphenylmethyl)pyrazolo[3,4-d]pyrimidin-4-one] gave an inhibition at 0.1 µM (cGMP-PDE V) of 25% and an inhibition at 1 µM (cGMP-PDE V; 1 μM) of 73%.

`CCc1[nH]n(C2CCCC2)c2nc(Cc3ccccn3)nc(=O)c1-2` [Example 9, 1-cyclopentyl-3-ethyl-6-(2-pyridinylmethyl)pyrazolo[3,4-d]pyrimidin-4-one] gave an IC50 (cGMP-PDE V) of 540 nM.

With `CCc1[nH]n(C2CCCC2)c2nc(Nc3ccccc3)nc(=O)c1-2` [38(d), 1-cyclopentyl-3-ethyl-6-(phenylamino)pyrazolo[3,4-d]pyrimidin-4-one] the IC50 (cGMP-PDE V) was 270 nM.

Molecule `CCc1[nH]n(C2CCCC2)c2nc(Cc3ccc(OCC(=O)O)cc3)nc(=O)c1-2` [8(b), 1-cyclopentyl-3-ethyl-6-[4-(carboxymethoxy)phenylmethyl]pyrazolo[3,4-d]pyrimidin-4-one] has an IC50 (cGMP-PDE V) of 1200 nM.

`CCc1[nH]n(C2CCCC2)c2nc(Cc3cccc(O)c3)nc(=O)c1-2` [Example 20, 1-cyclopentyl-3-ethyl-6-(3-hydroxyphenylmethyl)pyrazolo[3,4-d]pyrimidin-4-one] was tested, and the IC50 (cGMP-PDE V) was 86 nM, the ED25 [1] was 10.1 mg/kg and the change in vivo at 10 mg/kg [1] was -23%.

`CCc1[nH]n(C2CCCC2)c2nc(Cc3ccc(OC)c(OC)c3)nc(=O)c1-2` [3(b), 1-cyclopentyl-3-ethyl-6-(3,4-dimethoxyphenylmethyl)-pyrazolo[3,4-d)pyrimidin-4-one] showed an IC50 (cGMP-PDE V) of 22 nM.

In the case of `CCc1[nH]n(C2CCCC2)c2nc(Cc3ccccc3N)nc(=O)c1-2` [Example 34, 1-cyclopentyl-3-ethyl-6-(2-aminophenylmethyl)pyrazolo[3,4-d]pyrimidin-4-one], the inhibition at 0.1 µM (cGMP-PDE V) is reported as 45% and the inhibition at 1 µM (cGMP-PDE V; 1 μM) is reported as 78%.

In the case of `CCc1[nH]n(C2CCCC2)c2nc(Cc3ccncc3)nc(=O)c1-2` [4(b), 1-cyclopentyl-3-ethyl-6-(4-pyridinylmethyl)pyrazolo[3,4-d]pyrimidin-4-one], the IC50 (cGMP-PDE V) is reported as 650 nM.

Molecule `CCc1[nH]n(C2CCCC2)c2nc(Cc3ccccc3O)nc(=O)c1-2` [Example 30, 1-cyclopentyl-3-ethyl-6-(2-hydroxyphenylmethyl)pyrazolo[3,4-d]pyrimidin-4-one] has an inhibition at 0.1 µM (cGMP-PDE V) of 43% and an inhibition at 1 µM (cGMP-PDE V; 1 μM) of 73%.

Molecule `CCc1[nH]n(C2CCCC2)c2nc(Cc3ccc(NS(C)(=O)=O)cc3)nc(=O)c1-2` [Example 29, 1-cyclopentyl-3-ethyl-6-[4-(methylsulfonylamino)phenylmethyl]pyrazolo[3,4-d]pyrimidin-4-one] has an inhibition at 0.01 µM (cGMP-PDE V) of 77% and an inhibition at 0.1 µM (cGMP-PDE V) of 94%.

`CCc1[nH]n(C2CCCC2)c2nc(Cc3ccc(C(F)(F)F)cc3)nc(=O)c1-2` [24(b), 1-cyclopentyl-3-ethyl-6-(4-trifluoromethylphenylmethyl) pyrazolo[3,4-d]pyrimidin-4-one] was tested, and the IC50 (cGMP-PDE V) was 180 nM and the change in vivo at 10 mg/kg [1] was -8%.

`CCc1[nH]n(C2CCCC2)c2nc(Cc3ccc([N+](=O)[O-])cc3)nc(=O)c1-2` [25(a), 1-cyclopentyl-3-ethyl-6-(4-nitrophenylmethyl)pyrazolo[3,4-d]pyrimidin-4-one] showed an IC50 (cGMP-PDE V) of 76 nM and a change in vivo at 10 mg/kg [1] of -5%.

`CCc1nn(C2CCCC2)c2nc(Cn3cccn3)[nH]c(=O)c12` [23(b), 1-cyclopentyl-3-ethyl-6-(1-pyrazolylmethyl)pyrazolo[3,4-d]pyrimidin-4-one] was tested, and the inhibition at 1 µM (cGMP-PDE V; 1 μM) was 33%.

For `CCc1[nH]n(C2CCCC2)c2nc(CO)nc(=O)c1-2` [Example 17, 1-cyclopentyl-3-ethyl-6-(hydroxymethyl)pyrazolo[3,4-d]pyrimidin-4-one], the inhibition at 1 µM (cGMP-PDE V; 1 μM) was 20% and the inhibition at 10 µM (cGMP-PDE V; 10 μM) was 61%.

Work on `CCc1nn(C2CCCC2)c2nc(CN3CCCc4ccccc43)[nH]c(=O)c12` [16(b), 1-cyclopentyl-3-ethyl-6-(1,2,3,4-tetrahydro-1-quinolinylmethyl)pyrazolo[3,4-d]pyrimidin-4-one] yielded an inhibition at 1 µM (cGMP-PDE V; 1 μM) of 32% and an inhibition at 10 µM (cGMP-PDE V; 10 μM) of 90%.

`CCc1nn(C2CCCC2)c2nc(Cc3cccc(OCCN4CCOCC4)c3)[nH]c(=O)c12` [21(c), 1-cyclopentyl-3-ethyl-6-[3-[2-(4-morpholinyl)ethoxy]phenylmethyl]pyrazolo[3.4-d]pyrimidin-4-one] showed an IC50 (cGMP-PDE V) of 420 nM.

For `CCc1[nH]n(C2CCCC2)c2nc(Cc3cccnc3)nc(=O)c1-2` [Example 13, 1-cyclopentyl-3-ethyl-6-[3-pyridinylmethyl]pyrazolo[3,4-d]pyrimidin-4-one], the IC50 (cGMP-PDE V) was 660 nM.

Molecule `CCc1nn(C2CCCC2)c2nc(Cn3ccnc3)[nH]c(=O)c12` [18(b), 1-cyclopentyl-3-ethyl-6-(1-imidazolylmethyl)pyrazolo[3,4-d]pyrimidin-4-one] has an inhibition at 1 µM (cGMP-PDE V; 1 μM) of 33%.

Molecule `CCc1[nH]n(C2CCCC2)c2nc(Cc3cccs3)nc(=O)c1-2` [Example 32, 1-cyclopentyl-3-ethyl-6-(2-thienylmethyl)pyrazolo[3,4-d]pyrimidin-4-one] has an inhibition at 0.01 µM (cGMP-PDE V) of 24%, an inhibition at 0.1 µM (cGMP-PDE V) of 58% and an inhibition at 1 µM (cGMP-PDE V; 1 μM) of 89%.

In the case of `CCc1[nH]n(C2CCCC2)c2nc(Cc3ccc(N(C)C)cc3)nc(=O)c1-2` [Example 35, 1-cyclopentyl-3-ethyl-6-(4-dimethylaminophenylmethyl)pyrazolo[3,4-d]pyrimidin-4-one], the inhibition at 0.1 µM (cGMP-PDE V) is reported as 34% and the inhibition at 1 µM (cGMP-PDE V; 1 μM) is reported as 53%.
